We go through 13 compounds from ChEMBL document CHEMBL1201862, “PubChem BioAssay data set” (2004).

Some test systems named below: KM-20L2; U-251; DMS-273; DLD-1; RPMI-8226; MOLT-4; OVCAR-8; SW-620; NCI-H460; HCT-15; UACC-62; OVCAR-5; HT-29; HCC 2998; K562; 786-0.
Assay in all cases: NCI-60 cell line screen, 48 h

The structures appear in SMILES notation.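 Values below derive from 48-hour exposures of cells grown in 96-well plates, with endpoints linearly interpolated between the two concentrations bracketing the appropriate inhibition level. GI50 is the concentration that inhibits growth by half.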 Activity calls are given as the source filed them. Rule as the data show it: active = GI50 up to about 1.1 µM and inactive = higher.

On to `CC[P+](C)(Cc1ccccc1)c1ccccc1` (stereo not drawn), for which the GI50 in the assay with KM-20L2 was > 100 µM (inactive); in the assay on U-251 it was 59 µM (inactive); in the assay with DMS-273, > 100 µM (inactive); in the assay on DLD-1 it was > 100 µM (inactive); in the assay with RPMI-8226, 57.4 µM (inactive); in the assay on MOLT-4, > 100 µM (inactive). For the same compound, the GI50 was > 100 µM (inactive) in the assay with OVCAR-8; > 100 µM (inactive) in the assay with SW-620; > 100 µM (inactive) in the assay with NCI-H460; above 100 µM in the assay with HCT-15; > 100 µM (inactive) in the assay on UACC-62; > 100 µM (inactive) in the assay on OVCAR-5. In addition, the GI50 in the assay on HT-29, with HCC 2998, with K562 and with 786-0 was > 100 µM (inactive) each time.
As to `CC(C)c1cccc(C(C)C)c1NC(=O)CCC(=O)NN`, the GI50 is > 100 µM (inactive) in the assay on KM-20L2; > 100 µM (inactive) with U-251; 61.5 µM (inactive) in the assay with DMS-273; > 100 µM (inactive) with DLD-1; 46.1 µM (inactive) with RPMI-8226; > 100 µM (inactive) in the assay with MOLT-4. Moreover, the GI50 in the assay on OVCAR-8 is > 100 µM (inactive); in the assay on SW-620 it was 21.9 µM (inactive); in the assay on NCI-H460, 84.9 µM (inactive); in the assay with HCT-15, 18 µM; in the assay with UACC-62 it was > 100 µM (inactive); with OVCAR-5, > 100 µM (inactive). In addition, the GI50 was > 100 µM (inactive) with HT-29, > 100 µM (inactive) in the assay on HCC 2998, 58.6 µM (inactive) in the assay with K562 and > 100 µM (inactive) in the assay with 786-0.
On to `O=C(CC/C(CC(=O)c1ccc(Cl)cc1)=N\O)Nc1cccc(Cl)c1`, for which the GI50 with KM-20L2, in the assay with U-251, in the assay on DMS-273, with DLD-1, in the assay on RPMI-8226 and in the assay on MOLT-4 was > 100 µM (inactive) each time. Besides, the GI50 in the assay on OVCAR-8 is > 100 µM (inactive); with SW-620, > 100 µM (inactive); with NCI-H460, > 100 µM (inactive); in the assay with HCT-15 it was above 100 µM; in the assay with UACC-62, > 100 µM (inactive); in the assay with OVCAR-5 it was > 100 µM (inactive). Further, the GI50 with HT-29, with HCC 2998, with K562 and with 786-0 was > 100 µM (inactive) each time.
Consider `CC1=C(NC(=O)C(=O)NNC(=O)c2ccncc2)C(=O)c2ccccc2C1=O`, for which the GI50 is 23.4 µM (inactive) in the assay with KM-20L2; 9.04 µM (inactive) in the assay with U-251; 5.48 µM (inactive) in the assay with DMS-273; 13.8 µM (inactive) with DLD-1; 19.5 µM (inactive) with RPMI-8226; 20.8 µM (inactive) in the assay with MOLT-4. The GI50 in the assay with OVCAR-8 is 18.4 µM (inactive); with SW-620, 15.7 µM (inactive); with NCI-H460, 4.44 µM (inactive); in the assay on HCT-15, 12.4 µM; in the assay on UACC-62, 2.52 µM (inactive); in the assay on OVCAR-5 it was 17 µM (inactive). For the same compound, the GI50 with HT-29 was 15.5 µM (inactive); in the assay on HCC 2998, 16.9 µM (inactive); with K562, 24.1 µM (inactive); in the assay with 786-0, 18.2 µM (inactive).
On to `O=C1Cc2ccccc2N1/N=C\c1ccc([N+](=O)[O-])cc1`, for which the GI50 in the assay with KM-20L2, with U-251, in the assay on DMS-273, with DLD-1, in the assay with RPMI-8226 and in the assay with MOLT-4 was > 100 µM (inactive) throughout. In addition, the GI50 was > 100 µM (inactive) in the assay on OVCAR-8; > 100 µM (inactive) with SW-620; > 100 µM (inactive) in the assay on NCI-H460; above 100 µM with HCT-15; > 100 µM (inactive) in the assay with UACC-62; > 100 µM (inactive) in the assay with OVCAR-5. Besides, the GI50 in the assay with HT-29, in the assay on HCC 2998, in the assay with K562 and with 786-0 was > 100 µM (inactive) each time.
For `O=C(OCc1ccccc1)c1ccccc1-c1c2ccc(=O)cc-2oc2cc(OCc3ccccc3)ccc12`, the GI50 was 14.6 µM (inactive) in the assay with KM-20L2; 5.32 µM (inactive) in the assay with U-251; 7.03 µM (inactive) with DMS-273; 5.01 µM (inactive) in the assay with DLD-1; 5.48 µM (inactive) in the assay on RPMI-8226; 1.95 µM (inactive) in the assay on MOLT-4. In addition, the GI50 was 12.1 µM (inactive) in the assay on OVCAR-8; 12.1 µM (inactive) in the assay on SW-620; 15.7 µM (inactive) with NCI-H460; 9.84 µM in the assay on HCT-15; 10.2 µM (inactive) with UACC-62; 19.8 µM (inactive) in the assay with OVCAR-5. Also, the GI50 with HT-29 is 18.4 µM (inactive); in the assay with HCC 2998 it was 19.6 µM (inactive); with K562 it was 3.18 µM (inactive); with 786-0, 15.1 µM (inactive).
Turning to `CC(=O)N1CC2Nc3ccccc3C2CC1CO` (stereo not drawn), the GI50 with KM-20L2, in the assay on U-251, in the assay with DMS-273, in the assay on DLD-1, with RPMI-8226 and in the assay with MOLT-4 was > 100 µM (inactive) each time. Also, the GI50 was > 100 µM (inactive) with OVCAR-8; > 100 µM (inactive) with SW-620; > 100 µM (inactive) with NCI-H460; above 100 µM in the assay on HCT-15; > 100 µM (inactive) in the assay with UACC-62; > 100 µM (inactive) with OVCAR-5. The GI50 with HT-29, in the assay with HCC 2998, in the assay with K562 and with 786-0 was > 100 µM (inactive) each time.
On to `[N-]=[N+]=C1C(=O)C2CC3CC(C2)CC1C3`, for which the GI50 with KM-20L2, in the assay with U-251, in the assay on DMS-273, in the assay on DLD-1, with RPMI-8226 and with MOLT-4 was > 100 µM (inactive) in each case. The GI50 with OVCAR-8 was > 100 µM (inactive); in the assay on SW-620, 64 µM (inactive); in the assay on NCI-H460 it was > 100 µM (inactive); in the assay on HCT-15 it was above 100 µM; in the assay on UACC-62 it was > 100 µM (inactive); in the assay on OVCAR-5, > 100 µM (inactive). For the same compound, the GI50 with HT-29, in the assay with HCC 2998, in the assay with K562 and in the assay on 786-0 was > 100 µM (inactive) throughout.
In the case of `CC1(C)Cc2c(oc3ncnc(N)c23)CS1`, the GI50 with KM-20L2, with U-251, in the assay with DMS-273, in the assay with DLD-1, with RPMI-8226 and in the assay with MOLT-4 was > 100 µM (inactive) in each case. Also, the GI50 is > 100 µM (inactive) in the assay on OVCAR-8; > 100 µM (inactive) with SW-620; > 100 µM (inactive) in the assay on NCI-H460; above 100 µM in the assay with HCT-15; > 100 µM (inactive) in the assay on UACC-62; > 100 µM (inactive) in the assay with OVCAR-5. Further, the GI50 with HT-29, with HCC 2998, in the assay with K562 and in the assay on 786-0 was > 100 µM (inactive) in each case.
`Oc1nnc2c(-c3ccccc3)n[nH]c2n1`: the GI50 with KM-20L2, in the assay on U-251, in the assay on DMS-273, in the assay with DLD-1, in the assay with RPMI-8226 and with MOLT-4 was > 100 µM (inactive) in each case. Also, the GI50 is > 100 µM (inactive) in the assay on OVCAR-8; > 100 µM (inactive) in the assay on SW-620; > 100 µM (inactive) in the assay on NCI-H460; above 100 µM in the assay on HCT-15; > 100 µM (inactive) with UACC-62; > 100 µM (inactive) in the assay with OVCAR-5. The GI50 was > 100 µM (inactive) in the assay with HT-29, > 100 µM (inactive) with HCC 2998, > 100 µM (inactive) in the assay with K562 and 15.5 µM (inactive) with 786-0.
On to `CCCNC(=O)C1C(=O)C(=O)N(CCC)C1=O` (stereo not drawn), for which the GI50 in the assay on KM-20L2, in the assay with U-251, in the assay on DMS-273, in the assay on DLD-1, in the assay on RPMI-8226 and in the assay on MOLT-4 was > 100 µM (inactive) in each case. Besides, the GI50 in the assay with OVCAR-8 is > 100 µM (inactive); with SW-620, > 100 µM (inactive); in the assay on NCI-H460, > 100 µM (inactive); in the assay with HCT-15, above 100 µM; with UACC-62 it was > 100 µM (inactive); with OVCAR-5 it was 56.9 µM (inactive). Also, the GI50 in the assay with HT-29, in the assay with HCC 2998, in the assay with K562 and in the assay with 786-0 was > 100 µM (inactive) each time.
On to `Cc1ccc(C2OC(COCc3ccc(Cl)cc3)C(OCc3ccc(Cl)cc3)C2O)cc1` (stereo not drawn), for which the GI50 in the assay on KM-20L2 was 12.6 µM (inactive); in the assay with U-251, 10.5 µM (inactive); with DMS-273, 5.82 µM (inactive); with DLD-1, 9.29 µM (inactive); in the assay on RPMI-8226 it was 4.76 µM (inactive); with MOLT-4 it was 2.06 µM (inactive). The GI50 was 13.7 µM (inactive) in the assay with OVCAR-8; 14.3 µM (inactive) with SW-620; 4.49 µM (inactive) in the assay with NCI-H460; 7.85 µM with HCT-15; 4.42 µM (inactive) in the assay on UACC-62; > 100 µM (inactive) with OVCAR-5. The GI50 in the assay on HT-29 is 7.69 µM (inactive); with HCC 2998, 19.3 µM (inactive); with K562, 4.42 µM (inactive); in the assay with 786-0, > 10 µM (inactive).
As to `CC1=C2C(=CC(C)(CO)C2O)C(=O)C(C)(O)C12CC2` (stereo not drawn), the GI50 in the assay on KM-20L2 is 0.00216 µM (active); with U-251, 0.00102 µM (active); in the assay with DMS-273, 0.00162 µM (active); with DLD-1, 0.00895 µM (active); in the assay with RPMI-8226, 0.895 µM (active); with MOLT-4, 0.00156 µM (active). Besides, the GI50 in the assay on OVCAR-8 was 0.00286 µM (active); with SW-620, 0.00142 µM (active); in the assay on NCI-H460, 0.000668 µM (active); in the assay on HCT-15, 0.00197 µM; in the assay on UACC-62 it was 0.00286 µM (active); with OVCAR-5, 0.00673 µM (active). Moreover, the GI50 is 0.00154 µM (active) with HT-29, 0.00213 µM (active) in the assay with HCC 2998, 0.00279 µM (active) in the assay on K562 and 0.00337 µM (active) in the assay on 786-0.
